# Data reported in PubChem BioAssay AID2060487 (Molecular Pharmacology Branch, DTP, NCI, 2025).
# Tested on: 997537-175-T-J1-PDC complex spheroid viability
# Assay: Anticancer human tumor 997537-175-T-J1-PDC patient-derived colon adenocarcinoma cell line growth inhibition [GQUAD]
# Details: for IC50: curve of first compound; for viability, T/C: stronger effect = lower value
# Summary of the method: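 Viability of tumor cells grown as complex spheroids with endothelial and stromal cells, exposed to drug combinations. Top concentration at or near clinical Cmax (else 10 microM), diluted in half-log increments.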
# [1] = second compound 0.0316 µM, first compound 0.0316 µM
# [2] = second compound 0.0316 µM, first compound 0.1 µM
# [3] = second compound 0.0316 µM, first compound 0.316 µM
# [4] = second compound 0.0316 µM, first compound 1 µM
# [5] = second compound 0.0316 µM, first compound 3.16 µM
# [6] = second compound 0.0316 µM, first compound 10 µM
# [7] = second compound 0.1 µM, first compound 0.0316 µM
# [8] = second compound 0.1 µM, first compound 0.1 µM
# [9] = second compound 0.1 µM, first compound 0.316 µM
# [10] = second compound 0.1 µM, first compound 1 µM
# [11] = second compound 0.1 µM, first compound 3.16 µM
# [12] = second compound 0.1 µM, first compound 10 µM
# [13] = second compound 0.316 µM, first compound 0.0316 µM
# [14] = second compound 0.316 µM, first compound 0.1 µM
# [15] = second compound 0.316 µM, first compound 0.316 µM
# [16] = second compound 0.316 µM, first compound 1 µM
# [17] = second compound 0.316 µM, first compound 3.16 µM
# [18] = second compound 0.316 µM, first compound 10 µM
# [19] = second compound 1 µM, first compound 0.0316 µM
# [20] = second compound 1 µM, first compound 0.1 µM
# [21] = second compound 1 µM, first compound 0.316 µM
# [22] = second compound 1 µM, first compound 1 µM
# [23] = second compound 1 µM, first compound 3.16 µM
# [24] = second compound 1 µM, first compound 10 µM
# [25] = second compound 3.16 µM, first compound 0.0316 µM
# [26] = second compound 3.16 µM, first compound 0.1 µM
# [27] = second compound 3.16 µM, first compound 0.316 µM
# [28] = second compound 3.16 µM, first compound 1 µM
# [29] = second compound 3.16 µM, first compound 3.16 µM
# [30] = second compound 3.16 µM, first compound 10 µM
# [31] = second compound 10 µM, first compound 0.0316 µM
# [32] = second compound 10 µM, first compound 0.1 µM
# [33] = second compound 10 µM, first compound 0.316 µM
# [34] = second compound 10 µM, first compound 1 µM
# [35] = second compound 10 µM, first compound 3.16 µM
# [36] = second compound 10 µM, first compound 10 µM
# 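Note: spheroids exposed to the agents for 7 days.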
# 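Throughout, for viability, T/C: 100% = DMSO vehicle control viability.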
smiles,measurement,setting,value
CCCS(=O)(=O)Nc1ccc(F)c(C(=O)c2c[nH]c3ncc(-c4ccc(Cl)cc4)cc23)c1F + Cc1[nH]c2ccc(F)cc2c1-c1nc2c3cccnc3c3ncccc3c2[nH]1,IC50,second compound 0.0316 µM,5.74 µM
same,IC50,second compound 0.1 µM,5.6 µM
same,IC50,second compound 0.316 µM,8.05 µM
same,IC50,second compound 1 µM,1.92 µM
same,IC50,second compound 3.16 µM,2.03 µM
same,IC50,second compound 10 µM,1.47 µM
same,"viability, T/C",[1],88.8%
same,"viability, T/C",[2],107%
same,"viability, T/C",[3],97.9%
same,"viability, T/C",[4],70.1%
same,"viability, T/C",[5],71.5%
same,"viability, T/C",[6],34.4%
same,"viability, T/C",[7],101%
same,"viability, T/C",[8],105%
same,"viability, T/C",[9],90%
same,"viability, T/C",[10],94.1%
same,"viability, T/C",[11],71.6%
same,"viability, T/C",[12],27.5%
same,"viability, T/C",[13],102%
same,"viability, T/C",[14],101%
same,"viability, T/C",[15],97.1%
same,"viability, T/C",[16],69.2%
same,"viability, T/C",[17],83.5%
same,"viability, T/C",[18],41.8%
same,"viability, T/C",[19],98.2%
same,"viability, T/C",[20],97.4%
same,"viability, T/C",[21],101%
same,"viability, T/C",[22],73.4%
same,"viability, T/C",[23],33.1%
same,"viability, T/C",[24],30.7%
same,"viability, T/C",[25],86%
same,"viability, T/C",[26],81%
same,"viability, T/C",[27],88%
same,"viability, T/C",[28],72.8%
same,"viability, T/C",[29],35.4%
same,"viability, T/C",[30],16.5%
same,"viability, T/C",[31],72.4%
same,"viability, T/C",[32],82.5%
same,"viability, T/C",[33],71.8%
same,"viability, T/C",[34],63.3%
same,"viability, T/C",[35],17.7%
same,"viability, T/C",[36],28.9%
COc1cccc2c1C(=O)c1c(O)c3c(c(O)c1C2=O)CC(O)(C(=O)CO)CC3OC1CC(N)C(O)C(C)O1 (stereo unspecified) + Cc1cnc(CNC(=O)c2c(=O)c3ccc(N4CCCN(C)CC4)nc3n3c2sc2ccccc23)cn1,IC50,second compound 0.0316 µM,> 10 µM
same,IC50,second compound 0.1 µM,> 10 µM
same,IC50,second compound 0.316 µM,8.33 µM
same,IC50,second compound 1 µM,7.33 µM
same,IC50,second compound 3.16 µM,5.89 µM
same,IC50,second compound 10 µM,6.25 µM
same,"viability, T/C",[1],112%
same,"viability, T/C",[2],74.6%
same,"viability, T/C",[3],97.5%
same,"viability, T/C",[4],93.6%
same,"viability, T/C",[5],80%
same,"viability, T/C",[6],52.8%
same,"viability, T/C",[7],107%
same,"viability, T/C",[8],76.5%
same,"viability, T/C",[9],94%
same,"viability, T/C",[10],90.8%
same,"viability, T/C",[11],86.5%
same,"viability, T/C",[12],55.2%
same,"viability, T/C",[13],82.3%
same,"viability, T/C",[14],90.4%
same,"viability, T/C",[15],115%
same,"viability, T/C",[16],98.5%
same,"viability, T/C",[17],87%
same,"viability, T/C",[18],42.5%
same,"viability, T/C",[19],91.5%
same,"viability, T/C",[20],68.4%
same,"viability, T/C",[21],116%
same,"viability, T/C",[22],106%
same,"viability, T/C",[23],88%
same,"viability, T/C",[24],36%
same,"viability, T/C",[25],69.7%
same,"viability, T/C",[26],81.3%
same,"viability, T/C",[27],78%
same,"viability, T/C",[28],103%
same,"viability, T/C",[29],93.4%
same,"viability, T/C",[30],20.1%
same,"viability, T/C",[31],75.8%
same,"viability, T/C",[32],77.4%
same,"viability, T/C",[33],109%
same,"viability, T/C",[34],91.9%
same,"viability, T/C",[35],93.2%
same,"viability, T/C",[36],22.7%
CC[C@@]1(O)C(=O)OCc2c1cc1n(c2=O)Cc2cc3c(CN(C)C)c(O)ccc3nc2-1 + Cc1[nH]c2ccc(F)cc2c1-c1nc2c3cccnc3c3ncccc3c2[nH]1,IC50,second compound 0.0316 µM,> 0.316 µM
same,IC50,second compound 0.1 µM,> 0.316 µM
same,IC50,second compound 0.316 µM,> 0.316 µM
same,IC50,second compound 1 µM,> 0.316 µM
same,IC50,second compound 3.16 µM,> 0.316 µM
same,IC50,second compound 10 µM,> 0.316 µM
same,"viability, T/C","second compound 0.0316 µM, first compound 0.000999 µM",97.8%
same,"viability, T/C","second compound 0.0316 µM, first compound 0.00316 µM",91.4%
same,"viability, T/C","second compound 0.0316 µM, first compound 0.00999 µM",99.2%
same,"viability, T/C",[1],86.7%
same,"viability, T/C","second compound 0.0316 µM, first compound 0.0999 µM",90.6%
same,"viability, T/C",[3],55.9%
same,"viability, T/C","second compound 0.1 µM, first compound 0.000999 µM",92%
same,"viability, T/C","second compound 0.1 µM, first compound 0.00316 µM",89.1%
same,"viability, T/C","second compound 0.1 µM, first compound 0.00999 µM",75.6%
same,"viability, T/C",[7],82.8%
same,"viability, T/C","second compound 0.1 µM, first compound 0.0999 µM",61.2%
same,"viability, T/C",[9],54.7%
same,"viability, T/C","second compound 0.316 µM, first compound 0.000999 µM",85.9%
same,"viability, T/C","second compound 0.316 µM, first compound 0.00316 µM",72.1%
same,"viability, T/C","second compound 0.316 µM, first compound 0.00999 µM",81.3%
same,"viability, T/C",[13],97%
same,"viability, T/C","second compound 0.316 µM, first compound 0.0999 µM",85.5%
same,"viability, T/C",[15],55.1%
same,"viability, T/C","second compound 1 µM, first compound 0.000999 µM",80.8%
same,"viability, T/C","second compound 1 µM, first compound 0.00316 µM",59.6%
same,"viability, T/C","second compound 1 µM, first compound 0.00999 µM",85.8%
same,"viability, T/C",[19],93%
same,"viability, T/C","second compound 1 µM, first compound 0.0999 µM",80.2%
same,"viability, T/C",[21],62.6%
same,"viability, T/C","second compound 3.16 µM, first compound 0.000999 µM",51.4%
same,"viability, T/C","second compound 3.16 µM, first compound 0.00316 µM",82.8%
same,"viability, T/C","second compound 3.16 µM, first compound 0.00999 µM",61%
same,"viability, T/C",[25],51.2%
same,"viability, T/C","second compound 3.16 µM, first compound 0.0999 µM",90.5%
same,"viability, T/C",[27],70.8%
same,"viability, T/C","second compound 10 µM, first compound 0.000999 µM",71.8%
same,"viability, T/C","second compound 10 µM, first compound 0.00316 µM",82.4%
same,"viability, T/C","second compound 10 µM, first compound 0.00999 µM",77.3%
same,"viability, T/C",[31],62.2%
same,"viability, T/C","second compound 10 µM, first compound 0.0999 µM",62.9%
same,"viability, T/C",[33],58.9%
